Biological target: CFTR-mediated chloride transport (Homo sapiens, UniProt P13569)
Assay: Corrector Assay A - membrane potential dye assay (enteroid cells)
Settings: for Corrector Assay A % activity: % of chloride transport of triple combination control (1 μM (14S)-dispiro macrocycle + 3 μM tezacaftor + 300 nM ivacaftor); for EC50: read-out: Corrector Assay A EC50, human intestinal enteroid cells, 18-24 h incubation, acute 10 μM forskolin + 300 nM ivacaftor

SMILES	Corrector Assay A % activity	EC50 [nM]
CC(C)(C)c1ccc2c(n1)N1C[C@@H](CCC(C(C)(C)O)Nc3cccc(n3)S(=O)(=O)NC2=O)CC1(C)C (stereo partly drawn) [Compound 12, (14S)-8-tert-Butyl-17-(2-hydroxypropan-2-yl)-12,12-dimethyl-2λ^6-thia-3,9,11,18,23-pentaazatetracyclo[17.3.1.111,14.05,10]tetracosa-1(23),5(10),6,8,19,21-hexaene-2,2,4-trione]	+++ (+++ is >60%)	< 1000
CC(C)(C)c1ccc2c(n1)N1CC(CCC(C(C)(C)O)Nc3cccc(n3)S(=O)(=O)NC2=O)CC1(C)C (stereo not drawn) [Compound 13]	++ (++ is 30-60%)	< 1000
CC(C)(C)c1ccc2c(n1)N1C[C@@H](CCC(CCCC(=O)NCc3ccccc3)Nc3cccc(n3)S(=O)(=O)NC2=O)CC1(C)C (stereo partly drawn) [Compound 15, N-benzyl-4-[(14S)-8-tert-butyl-12,12-dimethyl-2,2,4-trioxo-2λ^6-thia-3,9,11,18,23-pentaazatetracyclo[17.3.1.111,14.05,10]tetracosa-1(23),5(10),6,8,19,21-hexaen-17-yl]butanamide]	+++ (+++ is >60%)	< 1000
CC(C)(C)c1ccc2c(n1)N1C[C@@H](CCC(CCCC(=O)O)Nc3cccc(n3)S(=O)(=O)NC2=O)CC1(C)C (stereo partly drawn) [Compound 19, 4-[(14S)-8-tert-Butyl-12,12-dimethyl-2,2,4-trioxo-2λ^6-thia-3,9,11,18,23-pentaazatetracyclo[17.3.1.111,14.05,10]tetracosa-1(23),5(10),6,8,19,21-hexaen-17-yl]butanoic acid]	+++ (+++ is >60%)	1000 to 3000
CC(C)(C)c1ccc2c(n1)N1C[C@@H](CCC(c3ccc(C4COC4)cn3)Nc3cccc(n3)S(=O)(=O)NC2=O)CC1(C)C (stereo partly drawn) [Compound 29, (14S)-8-tert-butyl-12,12-dimethyl-17-[5-(oxetan-3-yl)pyridin-2-yl]-2λ^6-thia-3,9,11,18,23-pentaazatetracyclo[17.3.1.111,14.05,10]tetracosa-1(23),5(10),6,8,19,21-hexaene-2,2,4-trione]	+++ (+++ is >60%)	< 1000
Cn1nccc1-c1ccc(C2CC[C@@H]3CN(c4nc(C(C)(C)C)ccc4C(=O)NS(=O)(=O)c4cccc(n4)N2)C(C)(C)C3)nc1 (stereo partly drawn) [Compound 57]	++ (++ is 30-60%)	< 1000
Cn1ccc(-c2ccc(C3CC[C@@H]4CN(c5nc(C(C)(C)C)ccc5C(=O)NS(=O)(=O)c5cccc(n5)N3)C(C)(C)C4)nc2)n1 (stereo partly drawn) [Compound 60]	+++ (+++ is >60%)	< 1000
CC(C)(C)c1ccc2c(n1)N1C[C@@H](CCC(c3ccc(N)cn3)Nc3cccc(n3)S(=O)(=O)NC2=O)CC1(C)C (stereo partly drawn) [Compound 64, (14S)-17-(5-aminopyridin-2-yl)-8-tert-butyl-12,12-dimethyl-2λ^6-thia-3,9,11,18,23-pentaazatetracyclo[17.3.1.111,14.05,10]tetracosa-1(23),5(10),6,8,19,21-hexaene-2,2,4-trione]	++ (++ is 30-60%)	< 1000
CC(C)(C)c1ccc2c(n1)N1C[C@@H](CC[C@H](c3cccc(C(N)=O)n3)Nc3cccc(n3)S(=O)(=O)NC2=O)CC1(C)C [Compound 70, 6-[(14S,17R)-8-tert-butyl-12,12-dimethyl-2,2,4-trioxo-2λ^6-thia-3,9,11,18,23-pentaazatetracyclo[17.3.1.111,14.05,10]tetracosa-1(22),5,7,9,19(23),20-hexaen-17-yl]pyridine-2-carboxamide]	++ (++ is 30-60%)	< 1000
CC(=O)NCc1ccc(C2CC[C@@H]3CN(c4nc(C(C)(C)C)ccc4C(=O)NS(=O)(=O)c4cccc(n4)N2)C(C)(C)C3)nc1 (stereo partly drawn) [Compound 71]	++ (++ is 30-60%)	< 1000
CC(=O)NCc1ccc(C2CC[C@@H]3CN(c4nc(C(C)(C)C)ccc4C(=O)NS(=O)(=O)c4cccc(n4)N2)C(C)(C)C3)nc1 (stereo partly drawn) [Compound 72, N-({6-[(14S)-8-tert-Butyl-12,12-dimethyl-2,2,4-trioxo-2λ^6-thia-3,9,11,18,23-pentaazatetracyclo[17.3.1.111,14.05,10]tetracosa-1(23),5(10),6,8,19,21-hexaen-17-yl]pyridin-3-yl}methyl)acetamide]	++ (++ is 30-60%)	< 1000
CC(C)(C)c1ccc2c(n1)N1C[C@@H](CC[C@H](c3cccc(-c4ccn[nH]4)n3)Nc3cccc(n3)S(=O)(=O)NC2=O)CC1(C)C [Compound 77]	++ (++ is 30-60%)	< 1000
CC(C)(C)c1ccc2c(n1)N1C[C@@H](CCC(c3ccc(CO)cn3)Nc3cccc(n3)S(=O)(=O)NC2=O)CC1(C)C (stereo partly drawn) [Compound 78]	+++ (+++ is >60%)	< 1000
COC(=O)NCc1ccc(C2CC[C@@H]3CN(c4nc(C(C)(C)C)ccc4C(=O)NS(=O)(=O)c4cccc(n4)N2)C(C)(C)C3)nc1 (stereo partly drawn) [Compound 88]	+++ (+++ is >60%)	< 1000
COC(=O)NCc1ccc(C2CC[C@@H]3CN(c4nc(C(C)(C)C)ccc4C(=O)NS(=O)(=O)c4cccc(n4)N2)C(C)(C)C3)nc1 (stereo partly drawn) [Compound 89, Methyl N-({6-[(14S)-8-tert-butyl-12,12-dimethyl-2,2,4-trioxo-2λ^6-thia-3,9,11,18,23-pentaazatetracyclo[17.3.1.111,14.05,10]tetracosa-1(23),5(10),6,8,19,21-hexaen-17-yl]pyridin-3-yl}methyl)carbamate]	++ (++ is 30-60%)	< 1000
COC(=O)CCc1ccc(C2CC[C@@H]3CN(c4nc(C(C)(C)C)ccc4C(=O)NS(=O)(=O)c4cccc(n4)N2)C(C)(C)C3)nc1 (stereo partly drawn) [Compound 90]	++ (++ is 30-60%)	< 1000

Other lines, results leading:

Corrector Assay A % activity	EC50 [nM]	SMILES
++ (++ is 30-60%)	< 1000	CC(C)(C)c1ccc2c(n1)N1C[C@@H](CCC3CCCC(=O)N3c3cccc(n3)S(=O)(=O)NC2=O)CC1(C)C (stereo partly drawn) [Compound 14, (10S)-16-tert-Butyl-12,12-dimethyl-22λ^6-thia-2,13,15,21,27-pentaazapentacyclo[21.3.1.110,13.02,7.014,19]octacosa-1(26),14(19),15,17,23(27),24-hexaene-3,20,22,22-tetrone]
+++ (+++ is >60%)	< 1000	CC(C)(C)NC(=O)CCCC1CC[C@@H]2CN(c3nc(C(C)(C)C)ccc3C(=O)NS(=O)(=O)c3cccc(n3)N1)C(C)(C)C2 (stereo partly drawn) [Compound 16, N-tert-butyl-4-[(14S)-8-tert-butyl-12,12-dimethyl-2,2,4-trioxo-2λ^6-thia-3,9,11,18,23-pentaazatetracyclo[17.3.1.111,14.05,10]tetracosa-1(23),5(10),6,8,19,21-hexaen-17-yl]butanamide]
+++ (+++ is >60%)	< 1000	CC(C)N(C(=O)CCCC1CC[C@@H]2CN(c3nc(C(C)(C)C)ccc3C(=O)NS(=O)(=O)c3cccc(n3)N1)C(C)(C)C2)C(C)C (stereo partly drawn) [Compound 17, 4-[(14S)-8-tert-butyl-12,12-dimethyl-2,2,4-trioxo-2λ^6-thia-3,9,11,18,23-pentaazatetracyclo[17.3.1.111,14.05,10]tetracosa-1(23),5(10),6,8,19,21-hexaen-17-yl]-N,N-bis(propan-2-yl)butanamide]
+++ (+++ is >60%)	< 1000	CN(C)C(=O)CCCC1CC[C@@H]2CN(c3nc(C(C)(C)C)ccc3C(=O)NS(=O)(=O)c3cccc(n3)N1)C(C)(C)C2 (stereo partly drawn) [Compound 18, 4-[(14S)-8-tert-Butyl-12,12-dimethyl-2,2,4-trioxo-2λ^6-thia-3,9,11,18,23-pentaazatetracyclo[17.3.1.111,14.05,10]tetracosa-1(23),5(10),6,8,19,21-hexaen-17-yl]-N,N-dimethylbutanamide]
+++ (+++ is >60%)	< 1000	CC(C)(C)c1ccc2c(n1)N1C[C@@H](CCC(c3ccc(C4CC(F)(F)C4)cn3)Nc3cccc(n3)S(=O)(=O)NC2=O)CC1(C)C (stereo partly drawn) [Compound 21]
+++ (+++ is >60%)	1000 to 3000	CC(C)(C)c1ccc2c(n1)N1C[C@@H](CC[C@H](c3cccc(CNCC(F)(F)F)n3)Nc3cccc(n3)S(=O)(=O)NC2=O)CC1(C)C [Compound 50, (14S,17R)-8-tert-Butyl-12,12-dimethyl-17-(6-{[(2,2,2-trifluoroethyl)amino]methyl}pyridin-2-yl)-2λ^6-thia-3,9,11,18,23-pentaazatetracyclo[17.3.1.111,14.05,10]tetracosa-1(22),5,7,9,19(23),20-hexaene-2,2,4-trione]
+++ (+++ is >60%)	< 1000	Cn1nccc1-c1ccc(C2CC[C@@H]3CN(c4nc(C(C)(C)C)ccc4C(=O)NS(=O)(=O)c4cccc(n4)N2)C(C)(C)C3)nc1 (stereo partly drawn) [Compound 58]
+ (+ is <30%)	< 1000	Cn1ccc(-c2ccc(C3CC[C@@H]4CN(c5nc(C(C)(C)C)ccc5C(=O)NS(=O)(=O)c5cccc(n5)N3)C(C)(C)C4)nc2)n1 (stereo partly drawn) [Compound 59]
+++ (+++ is >60%)	< 1000	CC(C)(C)c1ccc2c(n1)N1C[C@@H](CCC(c3ccc(N)cn3)Nc3cccc(n3)S(=O)(=O)NC2=O)CC1(C)C (stereo partly drawn) [Compound 63]
+++ (+++ is >60%)	< 1000	CC(C)(C)c1ccc2c(n1)N1C[C@@H](CC[C@H](c3cccc(-c4cn[nH]c4)n3)Nc3cccc(n3)S(=O)(=O)NC2=O)CC1(C)C [Compound 67]
+++ (+++ is >60%)	< 1000	CC(C)(C)c1ccc2c(n1)N1C[C@@H](CCC(c3ccc(CO)cn3)Nc3cccc(n3)S(=O)(=O)NC2=O)CC1(C)C (stereo partly drawn) [Compound 79, (14S)-8-tert-butyl-17-[5-(hydroxymethyl)pyridin-2-yl]-12,12-dimethyl-2λ^6-thia-3,9,11,18,23-pentaazatetracyclo[17.3.1.111,14.05,10]tetracosa-1(23),5(10),6,8,19,21-hexaene-2,2,4-trione]
